Each block holds one molecule with its values, some of them ahead of it.
What was measured:
Assay type in all cases: biochemical
[1] = Acceptor reaction with sucrose and dextran 1500 Da; α-1,3 connections by proton NMR; conditions: for factor multiplying the activity of the enzyme on addition of dextran 1500 Da as acceptor: compared to the activity measured on sucrose alone
Description: While nothing presaged that this protein had still an activity, the latter (as well as its truncated form) was also incubated in the presence of sucrose and a linear dextran (glucan composed exclusively of α-1,6 bonds) of a molecular weight of 1500 Da.
(§1) We incubated for 16 h at 30° C., enzyme in sucrose (from 25 g/L to 170 g/L) in the presence of dextrans of variable molecular weight (from 1500 Da to 2.10^6 Da) and of varying concentration of 30 g/L to 100 g/L.; the sucrose/acceptor (M/M) ratio varies depending on the desired connection rate in α-1,3. The reaction medium was buffered with a solution with final sodium acetate with 50 mM, pH 5.2. A sample at initial and final times of the reaction was conducted, heated at 95° C. for 5 minutes to stop the reaction and analysed by various chromatographic (HPAEC-PAD, HPSEC) and structural (proton NMR) techniques.
(§2) More specifically, monosaccharides, disaccharides, and small oligosaccharides (degree of polymerisation less than 20) were separated and quantified by HPAEC-PAD (High Performance Anion Exchange Chromatography with Pulsed Amperometric Detection) on column Dionex CarboPac PA-100. A sodium acetate gradient of 6 to 300 mM in 36 min, containing 150 mM of sodium hydroxide used to separate glucose, fructose, sucrose, leucrose, isomaltooligosaccharides, etc. Standard ranges of 5, 10, 15 and 20 mg·kg-1 of these sugars were performed to allow quantification. These samples were diluted for a total sugar concentration of 25 mg·kg-1.
Analyses by HPSEC (High Performance Size Exclusion Chromatography-) were used to estimate the molecular weight of oligosaccharide populations or of polymers synthesised during the reactions. The separation was done using two columns SHODEX (OH-Pack SB-805 and 802.5) arranged in series. Solutions of 1, 2.5, 5 and 10 gL−1 sucrose, fructose, maltoheptaose, Dextran 11.3 kDa, 68.4 kDa, 503 kDa, 2000 kDa served as benchmarks. The samples were diluted 10 times to reach a maximum concentration of 10 g·kg-1. A solution of 0.45 M NaNO3+1% (v/v) ethylene glycol in 0.3 mL·min-1 is used as an eluent, and the samples should be diluted in the mobile phase. Column and precolumn were maintained at 70° C., detection is performed by refractometry.
(§3) For the NMR analyses, the synthesised polymers were stored at −80° C. overnight and then be freeze-dried (CHRIST ALPHA apparatus 2-4). 10 mg of the powder obtained are then dissolved in 0.5 mL of deuterated water and analysed by proton NMR. The 1H NMR spectra were acquired on a spectrometer BRUKER AVANCE (500 MHz). The data were then treated with the TOPSPIN 3.0 software.

[2] = Reaction of the enzyme on sucrose alone (HPAEC-PAD, HPSEC); conditions: no acceptor
Excerpt: The determination of the enzymatic activity of the polypeptide according to the invention can be determined by methods known to those skilled in the art, such as by use of the High Performance Liquid Chromatography Technique on reaction products with the polypeptide of the invention (MOULIS et al., J. Biol. Chem, 2006) or assay of reducing sugars by the method in dinitrosalycilic acid (SUMNER & HOWELL, 1935). More specifically, this enzymatic activity is expressed in glucansucrase units which represents the amount of enzyme which liberates one μmol of fructose per minute at 30° C. with a concentration of 100 g·L−1 sucrose and a buffer at pH 5.2 comprising 50 mM sodium acetate. This activity is preferably determined by measuring the initial rate of production of reducing sugars (fructose) by using the DNS method (SUMNER & HOWELL). To do this, a standard range of 0-2 g·L−1 of fructose is established. During kinetics, 100 μl of reaction medium are then sampled and the reaction is stopped by adding an equal volume of reagent. The samples were then heated for 5 min at 95° C., cooled in ice, diluted in half with water and the absorbance is read at 540 nm.
To characterise the functional properties of this putative transglucosylase, the enzyme was first implemented on sucrose alone, a natural substrate of enzymes of the GH70 family.
as §2, with “mg·kg-1. […]” for “mg·kg-1.”

[3] = Acceptor reaction with sucrose and higher molecular weight dextrans; proton NMR; conditions: dextran 68.4 kDa, 503 kDa and 2×10^6 Da
Description: as §1, §3
Tests were performed out on particular dextran 68.4 kDa, 503 kDa and 2×10^6 Da. Based on proton NMR analyses, the high molecular weight dextrans have 50% of α-1,3 bonds (FIGS. 7 and 8). Here again we find the comb-like structure described in the '80 s in the work on the native glucan produced by the strain.

[4] = Screening of a library of acceptors with sucrose; conditions: FOS and XOS as acceptors
Description: The enzyme α-1,3 BrS is put in the presence of its natural substrate (sucrose) and a panel of different acceptors, including dextrans connected in α-1.2 (BRISON et al., 2009), of mutans, of alternans, of reuterans, of fructans and of fructooligosaccharides, of polyphenols, of flavonoids, of amino acids. The reaction products are analysed by various chromatographic techniques (mass spectrometry, HPAEC-PAD) and by NMR.

factor multiplying the activity of the enzyme on addition of dextran 1500 Da as acceptor [1]: 26
Molecule: α-1,3 BrS: transglucosylase of 1888 amino acids from L. citreum NRRL B-742 forming α-1,3 connections of glucosyl units on acceptors
substitution rate (α-1,3) ([1]; sucrose/Dextran 1500 ratio 1/2): lower than 25% | rate of substitution (α-1,3) ([1]; sucrose/Dextran 1500 ratio 1/3): below 15% | degree of substitution (α-1,3) ([1]; sucrose/Dextran 1500 ratio above 1, increasing the substrate concentration): ~50% | degree of substitution (α-1,3) ([1]; sucrose/Dextran 1500 ratio greater than or equal to 1): about 40% | ability to produce polymers of glucosyl units from sucrose alone [2]: no ability to produce polymers of glucosyl units | α-1,3 bonds of the high molecular weight dextrans after reaction [3]: 50% | glycosylation of oligosaccharide acceptors [4]: allows the glycosylation of oligosaccharides

Molecule: GH L. fallax: orthologue protein from Leuconostoc fallax KCTC 3537, about 54% overall identity with α-1,3 BrS
connection rate in α-1,3 on a dextran 1500 Da [1]: 37% | ability to produce polymers of glucosyl units from sucrose alone [2]: inability to polymerise the glucosyl units

factor multiplying the activity of the enzyme on addition of dextran 1500 Da as acceptor [1]: 26 | rate of α-1,3 bonds according to the sucrose/dextran 1500 Da ratio, compared with the whole enzyme ([1]; truncated enzyme, same substrate (FIG. 6)): same results
B1: ΔPS ΔC-1313: form of α-1,3 BrS truncated of the signal peptide and C-terminal (position 1313) (protein)
chain: DTQTPVGTTQSQQDLTGQTGQDKPTTKEVIDKKEPVPQVSAQNVGDLSADAKTPKADDKQDTQPTNAQLPDQGNKQTNSNSDKGVKESTTAPVKTTDVPSKSVAPETNTSINGGQYVEKDGQFVYIDQSGKQVSGLQNIEGHTQYFDPKTGYQTKGELKNIDDNAYYFDKNSGNGRTFTKISNGSYSEKDGMWQYVDSHDKQPVKGLYDVEGNLQYFDLSTGNQAKHQIRSVDGVTYYFDADSGNATAFKAVTNGRYAEQTTKDKDGNETSYWAYLDNQGNAIKGLNDVNGEIQYFDEHTGEQLKGHTATVDGTTYYFEGNKGNLVSVVNTAPTGQYKINGDNVYYLDNNNEAIKGLYGINGNLNYFDLATGIQLKGQAKNIDGIGYYFDQNNGNGEYRYSLTGPVVKDVYSQHNAVNNLSANNFKNLVDGFLTAETWYRPAQILSHGTDWVASTDKDFRPLITVWWPNKDIQVNYLKLMQQIGILDNSVVFDTNNDQLVLNKGAESAQIGIEKKVSETGNTDWLNELLFAPNGNQPSFIKQQYLWNVDSEYPGGWFQGGYLAYQNSDLTPYANTNPDYRTHNGLEFLLANDVDNSNPVVQAEQLNWLYYLMNFGQITANDSNANFDSMRIDAISFVDPQIAKKAYDLLDKMYGLTDNEAVANQHISIVEAPKGETPITVEKQSALVESNWRDRMKQSLSKNATLDKLDPDPAINSLEKLVADDLVNRSQSSDKDSSTIPNYSIVHAHDKDIQDTVIHIMKIVNNNPNISMSDFTMQQLQNGLKAFYEDQHQSVKKYNQYNIPSAYALLLTNKDTVPRVFYGDMYQDYGDDLDGGQYMATKSIYYNAIEQMMKARLKYVAGGQIMAVTKIKNDGINKDGTNKSGEVLTSVRFGKDIMDAQGQGTAESRNQGIGVIVSNSSGLELKNSDSITLHMGIAHKNQAYRALMLTNDKGIVNYDQDNNAPIAWTNDHGDLIFTNQMINGQSDTAVKGYLNPEVAGYLAVWVPVGANDNQDARTVTTNQKNTDGKVLHTNAALDSKLMYEGFSNFQKMPTRGNQYANVVITKNIDLFKSWGITDFELAPQYRSSDGKDITDRFLDSIVQNGYGLSDRYDLGFKTPTKYGTDQDLRKAIERLHQAGMSVMADFVANQIYGLHADKEVVSAQHVNINGDTKLVVDPRYGTQMTVVNSVGGGDYQAKYGGEYLDTISKLYPGLLLDSNGQKIDLSTKIKEWSAKYLNGSNIPQVGMGYVLKDWNNGQYFHILDKEGQYSLPTQL
modifications: Delta PS, delta C-1313
ability to produce polymers of glucosyl units from sucrose alone [2]: no ability to produce polymers of glucosyl units | α-1,3 bonds of the high molecular weight dextrans after reaction [3]: 50%
